# Results: PMC9785202, “Changes in Disposition of Ezetimibe and Its Active Metabolites Induced by Impaired Hepatic Function: The Influence of Enzyme and Transporter Activities” (Pharmaceutics, 2022)
# Where two headings read alike, the source gives them in different places.
# How the values were obtained:
# [1] = Pharmacokinetics after intravenous or oral administration of 10 mg/kg EZE to control and CCl4-induced rats; format: in vivo; settings: for AUC(0-t) / Cmax / Tmax / half-life: Sprague-Dawley, rat, plasma, 10 mg/kg
# Description: Animals were fasted for 12 h with free access to water before the experiments. EZE was administered orally (prepared in 0.5% carboxymethylcellulose sodium) or intravenously (dissolved in 10% dimethyl sulfoxide, 10% tween-80, and 80% sterile H2O) to CCl4-induced rats (n = 5) and control rats (n = 5) at 10 mg/kg. Blood samples were collected from the retro-orbital venous plexus before administration (0 h), at 5, 15, and 30 min, and at 1, 2, 4, 6, 8, 12, 24, and 48 h after administration in tubes containing EDTA-2K. Plasma samples were harvested by centrifugation at 11,600 g for 5 min at 4 °C and then stored at −80 °C until further analysis.
# (§1) A 25.0 μL aliquot of each sample and 25.0 μL of internal standard (50.0 ng/mL EZE-d4) were mixed with 100 μL of acetonitrile. After the samples were vortexed and centrifugated at 2250 g for 15 min, the supernatants were used to measure EZE and its metabolites by LC-MS/MS.
# (§2) WinNonlin version 6.1 (Pharsight Corp., Cary, NC, USA) was used to calculate the pharmacokinetic parameters in a non-compartmental model. Statistical comparisons between the two groups were evaluated using a Student’s two-tailed unpaired t-test or the nonparametric Mann–Whitney test in GraphPad Prism (version 8.0, GraphPad Software Inc, SanDiego, CA, USA). A value of p < 0.05 was considered significant. All data were presented as the mean ± S.D. (n ≥ 3).
# [2] = Portal vein and femoral vein plasma pharmacokinetics after oral EZE; format: in vivo, rats; settings: oral 10 mg/kg EZE; for AUC(0-t): Sprague-Dawley, rat, po, 10 mg/kg
# Description: To investigate changes due to the first-pass metabolism and biliary excretion during liver disease, CCl4-induced rats (n = 5) and control rats (n = 5) were anesthetized and the hepatic portal and femoral veins were cannulated with PE-50 polyethylene tubing. EZE was orally administered to rats at 10 mg/kg. Blood samples were collected simultaneously from the hepatic portal and femoral veins before administration (0 h), at 5, 15, and 30 min, and at 1, 2, 4, 6, 8, 12, 24, and 48 h after administration. Plasma samples were harvested as previously described.
# as §1, §2
# UGTs = test: Incubation of EZE with liver S9 fractions of control and CCl4-induced rats (glucuronidation); format: in vitro ADME, rat; settings: 60 min
# Description: One portion of the rat liver tissue was homogenized in a 5-fold volume of ice-cold phosphate buffer (including 250 mM sucrose, 10 mM Tris-HCl, and 1 mM EDTA-2Na, pH 7.4) and centrifugated at 9000 g for 20 min. After centrifugation, the supernatant was collected as the S9 fraction and stored at −80 °C.
# To evaluate the effect of hepatic impairment on the hepatic metabolism of EZE, 0.3 μM, 3 μM, and 30 μM EZE were incubated with rat liver S9 fractions (2 mg of protein/mL) at 37 °C for 60 min in the Tris-HCl-buffered system (100 mM, pH 7.4), consisting of UDPGA (1 mM), MgCl2 (10 mM), and alamethicin (25 μg/mL). To investigate the effect of bile acids on the metabolism of EZE in the liver, 3 μM EZE was incubated with rat or human liver S9 fractions (2 mg of protein/mL) at 37 °C for 60 min in the Tris-HCl-buffered system with or without bile acids at 1, 10, and 100 μM. The total volume of the incubation system was 100 μL. The reactions were terminated by adding 100 μL of ice-cold acetonitrile. Samples were stored at −20 °C until analysis. EZE and EZE-Ph were detected by liquid chromatography with tandem mass spectrometry (LC-MS/MS).
# rat primary hepatocytes = test: Uptake of EZE and EZE-Ph by rat primary hepatocytes; format: in vitro ADME; settings: 10 μM, 10 min, rat hepatocytes
# Description: Rat primary hepatocytes were isolated from male SD rats as previously described [34]. Fresh rat hepatocytes (120,000 per well) were cultured in Williams’ E medium (containing 0.1 μM dexamethasone, 5% fetal bovine serum, 1% penicillin G/streptomycin, 1% GlutaMAX-I, and 1% insulin–transferrin–selenium) on collagen I-coated 48-well plates. Rat hepatocytes cultured for 4 h under a carbogen atmosphere were directly used for uptake assays.
# The hepatocytes were rinsed three times with HBSS (37 °C) and equilibrated in HBSS for 10 min. […] After 10 min of incubation, cells were quickly washed three times with ice-cold HBSS and then lysed by the addition of 300 μL of purified water. The protein content was measured using the BCA protein assay kit. EZE and EZE-Ph were analyzed by LC-MS/MS.
# The rates of substrate uptake were normalized using the protein contents of cell lysates.
# MDR1 = target: T1, MDR1 (Homo sapiens, UniProt P08183); test: Transport study with MDR1-expressing membrane vesicles; format: in vitro ADME; settings: MDR1 vesicles, 10 μM, 10 min
# T1 construct: purchased GenoMembrane Co., Ltd. (Yokohama, Japan); host or cells: Sf9 insect cells
# T1 sequence (P08183 whole entry): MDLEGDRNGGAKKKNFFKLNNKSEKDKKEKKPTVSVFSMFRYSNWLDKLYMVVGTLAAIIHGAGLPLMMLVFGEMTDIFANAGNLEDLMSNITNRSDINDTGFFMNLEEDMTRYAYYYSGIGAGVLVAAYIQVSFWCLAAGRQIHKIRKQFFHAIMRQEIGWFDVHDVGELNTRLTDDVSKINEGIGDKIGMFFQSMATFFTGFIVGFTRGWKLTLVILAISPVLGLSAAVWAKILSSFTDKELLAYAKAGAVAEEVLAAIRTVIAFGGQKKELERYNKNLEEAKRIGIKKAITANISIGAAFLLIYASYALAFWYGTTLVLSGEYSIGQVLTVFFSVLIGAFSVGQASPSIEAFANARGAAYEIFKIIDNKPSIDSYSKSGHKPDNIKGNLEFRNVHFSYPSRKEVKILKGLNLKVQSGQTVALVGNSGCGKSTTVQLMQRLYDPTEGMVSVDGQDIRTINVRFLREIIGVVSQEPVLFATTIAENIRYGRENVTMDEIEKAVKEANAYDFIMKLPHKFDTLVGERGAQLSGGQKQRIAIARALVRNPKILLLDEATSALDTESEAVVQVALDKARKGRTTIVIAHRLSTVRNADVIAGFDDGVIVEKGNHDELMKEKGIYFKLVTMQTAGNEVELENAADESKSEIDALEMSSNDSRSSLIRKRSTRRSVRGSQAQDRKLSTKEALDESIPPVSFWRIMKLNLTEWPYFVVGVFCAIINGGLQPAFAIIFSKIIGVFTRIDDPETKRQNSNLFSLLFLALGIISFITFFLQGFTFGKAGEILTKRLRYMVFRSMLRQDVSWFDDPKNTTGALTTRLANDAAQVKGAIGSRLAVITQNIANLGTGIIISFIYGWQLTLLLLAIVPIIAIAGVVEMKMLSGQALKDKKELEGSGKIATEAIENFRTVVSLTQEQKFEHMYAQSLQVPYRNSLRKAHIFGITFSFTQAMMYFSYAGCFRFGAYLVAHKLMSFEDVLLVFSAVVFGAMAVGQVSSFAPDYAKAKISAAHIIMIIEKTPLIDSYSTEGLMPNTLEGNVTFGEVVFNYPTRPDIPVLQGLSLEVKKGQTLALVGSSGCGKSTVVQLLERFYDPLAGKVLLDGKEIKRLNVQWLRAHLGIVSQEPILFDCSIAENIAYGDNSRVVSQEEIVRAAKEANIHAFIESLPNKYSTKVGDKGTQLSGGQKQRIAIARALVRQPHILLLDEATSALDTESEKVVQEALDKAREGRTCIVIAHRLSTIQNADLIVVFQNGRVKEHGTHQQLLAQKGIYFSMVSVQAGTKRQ
# Description: (§3) Human MDR1-, MRP2-, and MRP3-expressing membrane vesicles isolated from Sf9 insect cells were sourced from GenoMembrane Co., Ltd. (Yokohama, Japan).
# (§4) In transport studies, a modified rapid filtration technique was used according to the manufacturer’s protocol (GenoMembrane Co.). The uptake of test compounds (10 μM EZE or EZE-Ph) into membrane vesicles (100 μg protein/100 μL) was conducted with or without 4 mM ATP in the transport medium (50 μL, pH 7.4), which included 50 mM MOPS-Tris, 70 mM KCl, and 7.5 mM MgCl2. The vesicular transport was terminated after 10 min by adding 200 μL of ice-cold stop buffer containing 40 mM MOPS-Tris and 70 mM KCl. The stopped incubate was quickly transferred to a 96-well glass fiber filter plate (Millipore, MA, USA) and washed five times with ice-cold stop buffer. The EZE and EZE-Ph inside the vesicles were released by adding 200 μL of methanol–water (70:30, v/v) and analyzed by LC-MS/MS. The ATP-dependent transport was evaluated based on the ratio of transport with ATP to that without ATP.
# MRP2 = target: T2, MRP2 (Homo sapiens, UniProt Q92887); test: Transport study with MRP2-expressing membrane vesicles; format: in vitro ADME; settings: MRP2 vesicles, 10 μM, 10 min
# T2 construct: purchased GenoMembrane Co., Ltd. (Yokohama, Japan); host or cells: Sf9 insect cells
# T2 sequence (Q92887 whole entry): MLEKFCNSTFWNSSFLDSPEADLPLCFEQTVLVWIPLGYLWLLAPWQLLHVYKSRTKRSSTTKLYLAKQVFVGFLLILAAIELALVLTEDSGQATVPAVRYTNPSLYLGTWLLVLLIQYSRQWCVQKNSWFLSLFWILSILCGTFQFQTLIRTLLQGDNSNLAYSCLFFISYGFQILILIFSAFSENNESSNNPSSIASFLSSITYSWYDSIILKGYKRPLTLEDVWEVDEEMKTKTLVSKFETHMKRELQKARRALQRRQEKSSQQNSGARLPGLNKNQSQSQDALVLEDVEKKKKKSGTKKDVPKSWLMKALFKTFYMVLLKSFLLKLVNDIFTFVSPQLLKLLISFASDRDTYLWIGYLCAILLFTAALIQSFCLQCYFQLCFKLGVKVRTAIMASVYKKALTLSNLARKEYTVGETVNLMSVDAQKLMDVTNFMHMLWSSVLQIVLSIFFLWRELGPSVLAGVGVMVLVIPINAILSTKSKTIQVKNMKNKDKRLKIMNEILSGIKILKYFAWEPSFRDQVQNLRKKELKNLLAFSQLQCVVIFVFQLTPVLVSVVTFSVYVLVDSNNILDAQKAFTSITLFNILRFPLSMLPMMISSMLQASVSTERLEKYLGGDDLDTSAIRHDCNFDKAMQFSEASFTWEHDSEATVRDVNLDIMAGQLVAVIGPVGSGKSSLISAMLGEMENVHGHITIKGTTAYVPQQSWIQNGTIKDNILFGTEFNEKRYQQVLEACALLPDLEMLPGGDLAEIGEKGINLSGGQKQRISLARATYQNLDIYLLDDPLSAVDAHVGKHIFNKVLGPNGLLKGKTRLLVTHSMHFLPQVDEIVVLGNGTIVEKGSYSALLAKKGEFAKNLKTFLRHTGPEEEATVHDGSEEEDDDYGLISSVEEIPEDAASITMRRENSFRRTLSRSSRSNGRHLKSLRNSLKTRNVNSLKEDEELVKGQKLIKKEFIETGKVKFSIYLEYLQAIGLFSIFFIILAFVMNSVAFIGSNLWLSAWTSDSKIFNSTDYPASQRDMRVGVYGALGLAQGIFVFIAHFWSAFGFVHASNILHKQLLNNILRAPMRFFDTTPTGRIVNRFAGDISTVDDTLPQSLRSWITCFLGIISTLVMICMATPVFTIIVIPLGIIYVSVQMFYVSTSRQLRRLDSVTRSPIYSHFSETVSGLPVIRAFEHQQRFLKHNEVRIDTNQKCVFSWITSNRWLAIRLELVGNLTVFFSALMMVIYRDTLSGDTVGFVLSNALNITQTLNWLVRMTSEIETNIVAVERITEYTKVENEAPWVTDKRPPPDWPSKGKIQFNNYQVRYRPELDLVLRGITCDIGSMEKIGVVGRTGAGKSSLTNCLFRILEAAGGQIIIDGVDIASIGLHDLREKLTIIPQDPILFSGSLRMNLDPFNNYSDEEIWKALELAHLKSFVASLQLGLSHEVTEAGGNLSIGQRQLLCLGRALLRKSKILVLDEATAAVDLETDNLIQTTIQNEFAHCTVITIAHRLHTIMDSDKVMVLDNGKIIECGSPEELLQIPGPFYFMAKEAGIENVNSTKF
# Description: as §3, §4
# MRP3 = target: T3, MRP3 (Homo sapiens, UniProt O15438); test: Transport study with MRP3-expressing membrane vesicles; format: in vitro ADME; settings: MRP3 vesicles, 10 μM, 10 min
# T3 construct: purchased GenoMembrane Co., Ltd. (Yokohama, Japan); host or cells: Sf9 insect cells
# T3 sequence (O15438 whole entry): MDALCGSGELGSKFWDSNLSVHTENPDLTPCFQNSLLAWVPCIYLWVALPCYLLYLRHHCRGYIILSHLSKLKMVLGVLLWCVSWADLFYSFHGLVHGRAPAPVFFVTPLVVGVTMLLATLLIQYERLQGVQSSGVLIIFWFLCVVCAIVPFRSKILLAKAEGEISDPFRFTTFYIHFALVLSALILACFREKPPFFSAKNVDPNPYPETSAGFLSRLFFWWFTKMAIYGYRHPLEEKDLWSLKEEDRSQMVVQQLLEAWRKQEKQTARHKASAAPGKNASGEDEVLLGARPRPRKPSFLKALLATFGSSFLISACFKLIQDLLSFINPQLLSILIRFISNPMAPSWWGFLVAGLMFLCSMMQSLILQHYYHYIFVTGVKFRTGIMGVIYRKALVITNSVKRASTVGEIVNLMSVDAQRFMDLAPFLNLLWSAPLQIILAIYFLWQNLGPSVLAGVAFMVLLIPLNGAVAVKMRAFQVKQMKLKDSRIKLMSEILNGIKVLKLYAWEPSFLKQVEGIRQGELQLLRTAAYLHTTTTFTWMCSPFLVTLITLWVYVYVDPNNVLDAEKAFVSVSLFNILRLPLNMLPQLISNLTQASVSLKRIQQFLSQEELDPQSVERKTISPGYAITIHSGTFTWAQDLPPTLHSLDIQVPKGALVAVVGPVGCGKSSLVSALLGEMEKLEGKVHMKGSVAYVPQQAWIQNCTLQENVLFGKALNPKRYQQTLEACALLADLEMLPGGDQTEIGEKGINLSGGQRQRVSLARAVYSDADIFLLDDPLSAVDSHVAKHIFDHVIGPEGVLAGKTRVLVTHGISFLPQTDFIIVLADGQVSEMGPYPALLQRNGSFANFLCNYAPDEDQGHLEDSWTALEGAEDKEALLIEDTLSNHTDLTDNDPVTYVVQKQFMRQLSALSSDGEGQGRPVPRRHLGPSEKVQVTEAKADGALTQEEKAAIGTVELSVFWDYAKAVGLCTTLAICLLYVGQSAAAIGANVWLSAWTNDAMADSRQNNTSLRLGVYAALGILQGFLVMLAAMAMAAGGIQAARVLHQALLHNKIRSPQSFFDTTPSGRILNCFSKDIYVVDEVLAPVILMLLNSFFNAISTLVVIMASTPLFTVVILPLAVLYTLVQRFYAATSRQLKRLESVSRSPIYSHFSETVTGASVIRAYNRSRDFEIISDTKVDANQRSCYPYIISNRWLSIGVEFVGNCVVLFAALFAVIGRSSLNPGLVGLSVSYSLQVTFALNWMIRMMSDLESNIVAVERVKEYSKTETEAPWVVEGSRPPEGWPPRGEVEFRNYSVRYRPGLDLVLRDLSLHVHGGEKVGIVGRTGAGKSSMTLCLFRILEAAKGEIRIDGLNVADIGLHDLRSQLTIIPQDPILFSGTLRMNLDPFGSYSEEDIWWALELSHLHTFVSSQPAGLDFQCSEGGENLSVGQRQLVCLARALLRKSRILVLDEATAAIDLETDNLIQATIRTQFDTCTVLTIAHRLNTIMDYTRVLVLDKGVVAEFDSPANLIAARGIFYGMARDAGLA
# Description: as §3, §4
# [3] = for Autosampler stability (4°C, 24 h), RE / Post-extraction stability (room temperature 3 h), RE / Freeze-thaw stability (−20°C, three cycles), RE / Short-term stability (room temperature 3 h), RE: n = 6; for Freeze-thaw stability (−20°C, three cycles), RE / Short-term stability (room temperature 3 h), RE: rat plasma
# Description: The instrument parameters were as follows: ion spray voltage, −4500 V; source temperature, 550 °C; nebulizer gas, 60 psi; heater gas, 60 psi; and curtain gas, 40 psi. […] Data were acquired and processed with the Analyst 1.6.3 software (Applied Biosystems). The standard curve ranges were 1.00 to 1000 ng/mL for EZE, 3.00 to 3000 ng/mL for EZE-Ph, and 1.00 to 1000 ng/mL for EZE-Hy in plasma.
# Summary of the stability of ezetimibe and its metabolites in rat plasma (n = 6).
# [4] = iv, i.v. 10 mg/kg EZE, CCl4-induced rats
# [5] = iv, i.v. 10 mg/kg EZE, control rats
# [6] = po, p.o. 10 mg/kg EZE, CCl4-induced rats
# [7] = po, p.o. 10 mg/kg EZE, control rats
# [8] = intravenous injection of 10 mg/kg EZE
smiles,measurement,setting,value
"O=C(O)[C@H]1O[C@@H](Oc2ccc([C@@H]3[C@@H](CC[C@H](O)c4ccc(F)cc4)C(=O)N3c3ccc(F)cc3)cc2)[C@H](O)[C@@H](O)[C@@H]1O [EZE-Ph, ezetimibe phenoxy β-D-glucuronide]",AUC(0-t),[1]; [4],40.5 ± 1.81 µg·h/mL
same,Cmax,[1]; [4],6.97 ± 0.807 µg/mL
same,Tmax,[1]; [4],0.45 ± 0.11 h
same,half-life,[1]; [4],9.58 ± 6.2 h
same,AUC(0-t),[1]; [5],2.47 ± 0.418 µg·h/mL
same,Cmax,[1]; [5],1.05 ± 0.24 µg/mL
same,Tmax,[1]; [5],0.083 h
same,half-life,[1]; [5],8.96 ± 2.19 h
same,AUC(0-t),[1]; [6],18.3 ± 6.99 µg·h/mL
same,Cmax,[1]; [6],1.34 ± 0.585 µg/mL
same,Tmax,[1]; [6],3 ± 1.41 h
same,half-life,[1]; [6],8.98 ± 2.1 h
same,AUC(0-t),[1]; [7],4.17 ± 1.14 µg·h/mL
same,Cmax,[1]; [7],0.276 ± 0.069 µg/mL
same,Tmax,[1]; [7],8.8 ± 4.6 h
same,half-life,[1]; [7],5.5 ± 0.36 h
same,"AUC0–t, fold higher in CCl4-induced rats than in control rats",[1]; [8],16.4 fold
same,"AUC0–t, fold higher than that of EZE-Hy",[1]; [8],approximately 2.5 fold
same,"AUC0–t, fold higher in CCl4-induced rats than in control rats",[1]; oral administration of 10 mg/kg EZE,4.4 fold
same,AUC(0-t),"[2]; femoral vein plasma, CCl4-induced rats, read-out: AUC0–t in femoral vein plasma",12.5 µg·h/mL
same,AUC(0-t),"[2]; femoral vein plasma, control rats, read-out: AUC0–t in femoral vein plasma",2.58 µg·h/mL
same,AUC(0-t),"[2]; portal vein plasma, CCl4-induced rats, read-out: AUC0–t in portal vein plasma",15.9 µg·h/mL
same,AUC(0-t),"[2]; portal vein plasma, control rats, read-out: AUC0–t in portal vein plasma",14.8 µg·h/mL
same,"AUC0-t in femoral vein blood, fold increase in CCl4-induced rats vs control",[2],4.83 fold
same,"AUC0–t portal vein plasma vs femoral vein plasma, fold higher",[2]; CCl4-induced rats,1.28 fold
same,"AUC0–t portal vein plasma vs femoral vein plasma, fold higher",[2]; control rats,5.75 fold
same,decrease of formation of EZE-Ph in CCl4-induced rats compared with control rats,"UGTs; liver S9, 0.3 μM EZE",8.80%
same,decrease of formation of EZE-Ph in CCl4-induced rats compared with control rats,"UGTs; liver S9, 3 μM EZE",12.7%
same,decrease of formation of EZE-Ph in CCl4-induced rats compared with control rats,"UGTs; liver S9, 30 μM EZE",27.4%
same,uptake at 37 °C relative to that at 4 °C,rat primary hepatocytes,50.0 times
same,+ATP/-ATP ratio,MDR1,5.64
same,+ATP/-ATP ratio,MRP2,65.5
same,+ATP/-ATP ratio,MRP3,5.71
same,"Autosampler stability (4°C, 24 h), RE",[3]; HQC (800/2400/800 ng/ml),6.0%
same,"Post-extraction stability (room temperature 3 h), RE",[3]; HQC (800/2400/800 ng/ml),5.1%
same,"Autosampler stability (4°C, 24 h), RE",[3]; LQC (3.00/9.00/3.00 ng/ml),5.3%
same,"Post-extraction stability (room temperature 3 h), RE",[3]; LQC (3.00/9.00/3.00 ng/ml),8.8%
same,stability in rat plasma under the test conditions,"[3]; LQC and HQC samples, short-term, post-extraction, auto-sampler, three freeze/thaw cycles",stable
same,"Freeze-thaw stability (−20°C, three cycles), RE",[3]; HQC (800/2400/800 ng/ml),-0.4%
same,"Short-term stability (room temperature 3 h), RE",[3]; HQC (800/2400/800 ng/ml),0.3%
same,"Freeze-thaw stability (−20°C, three cycles), RE",[3]; LQC (3.00/9.00/3.00 ng/ml),0.8%
same,"Short-term stability (room temperature 3 h), RE",[3]; LQC (EZE/EZE-Ph/EZE-Hy 3.00/9.00/3.00 ng/ml),-1.9%
same,stability in blood,[3]; room temperature for 2 h,stable
